Two molecules from US20220000860A1, “COMPOUNDS, COMPOSITIONS, AND METHODS FOR TREATING HUMAN IMMUNODEFICIENCY VIRUS” (OYAGEN, INC., priority 2017, published 2022) can be followed below.

Data set [1] relates to Vif-dependent APOBEC3G degradation. Description: Vif-Dependent APOBEC3G Degradation Assay. The class given is cell-based, HIV. How it is done: APOBEC3G-V5-mCherry was stably expressed from the pIRES-P vector in 293T cells under puromycin selection. Fifty ng of plasmid expressing Vif-HA (accession no. AB573087) was transfected into the cells in 384-well format with Turbofect on a liquid handling robot. Four hours after transfection the compounds were added to cells in a range from 0-15 μM. Twenty-four hours after compound addition mCherry fluorescence was read on a BioTek Synergy4 plate reader (ex=587 nm, em=610 nm). Relative fluorescence units (RFU) from compound treated wells were quantified using thresholds set by the −Vif (positive control) and +Vif (negative control).

The next data set addresses T1, HIV-1 Integrase (Human immunodeficiency virus type 1 group M subtype B, UniProt P12497).
T1 construct: the integrase assay was conducted using the XpressBio HIV-1 Integrase Assay Kit; purchased XpressBio
In words: integrase assay (XpressBio HIV-1 Integrase Assay Kit). The class given is biochemical. How it is done:
(§1) For the assays listed in Table I, the integrase assay was conducted using the XpressBio HIV-1 Integrase Assay Kit according to the manufacture's protocol. The protease assay was conducted with the Anthranilyl (Abz)-HIV Protease Substrate (Bachem H-2992), a hexapeptide FRET substrate derived from the p24/p15 cleavage site of the viral gag-pol poly-protein, which allows the screening of potential HIV protease inhibitors. 1 mM Abz-Substrate was diluted with Assay Buffer to a working stock of 20 μM. A 50 μM stock HIV-1 protease (received from Sook-kyung Lee (UNC)) was diluted with Assay Buffer (50 mM HEPES, pH 6.8, 150 mM NaCl, and 1% DMSO) to a working stock of 100 nM. 2 μl 100 nM HIV-1 Protease along with 2 uL 20 μM Abz Substrate was added into each well and incubated at room temperature (avoiding light) for 1 hour before being read on an Envision plate reader (Perkin Elmer) excitation at 280 nm, emission at >435 nm. The reverse transcriptase assay utilized purified recombinant HIV (pNL4-3) heterodimeric (p66/p51) Reverse Transcriptase (RT) that was purchased from a commercially available source. The assay was performed in 96-well filter plate, where RT activity was determined by the incorporation of radiolabeled deoxyribonucleotides into the newly synthesized DNA strand. The RT reaction mixture contained in vitro transcribed viral RNA derived from the HIV-1NL4-3 5′-LTR region (position 454 to 652) and primer that is complementary to the primer binding site (PBS, nucleotide residues nucleotides 636 to 652), radiolabeled deoxyribonucleotide, dNTPs and reverse transcriptase. Briefly, the reaction was carried out in a volume of 50 μl containing 50 mM Tris HCl, pH 7.8, 50 mM KCl, 5 mM MgCl2, 1 mM DTT, 50 μM each of dATP, dCTP, dGTP, 50 nM dTTP, 1 μCi of [^3H] dTTP (70-90 Ci/mM) and 5 nM template/primer. The reaction was initiated by the addition of 10 nM RT. For compound screening, serially diluted test articles were added to the reaction followed by the addition of RT. The reaction mixture was incubated at 37° C. for 1 h, and then quenched by the addition of ice-cold trichloroacetic acid (TCA) to the final concentration of 10%. The plate was incubated at 4° C. for 1 h to precipitate the synthesized DNA, then rinsed 3-times with 10% TCA and 1 time with 70% ethanol. After addition of 25 μl scintillation fluid to completely dried wells, radioactivity is counted by MicroBeta scintillation counter. The reduction of radioactivity represents the potency of compound inhibition.

Data set [2] has as its target T2, recombinant HIV (pNL4-3) heterodimeric (p66/p51) Reverse Transcriptase (Human immunodeficiency virus type 1 group M subtype B, UniProt P12497).
T2 construct: purified recombinant HIV (pNL4-3) heterodimeric (p66/p51) Reverse Transcriptase (RT); purchased
In words: reverse transcriptase assay. The class given is biochemical. As for the experimental part:
as §1

Another data set has as its system IIIB (Subtype B). Description: PBMC Acute Infection, IIIB. The class given is cell-based, HIV. The conditions noted are these: Human immunodeficiency virus 1, isolate IIIB, subtype B, RT activity readout; for EC50: read-out: EC50; for EC90: read-out: EC90. How it is done: (§2) PHA-stimulated cells from at least two normal donors were pooled (i.e. mixed together), diluted in fresh medium to a final concentration of 1×10^6 cells/mL, and plated in the interior wells of a 96-well round bottom microplate at 50 μL/well (5×10^4 cells/well). Pooling of mononuclear cells from more than one donor was used to minimize the variability observed between individual donors in quantitative and qualitative differences in HIV infection and overall response to the PHA and IL-2 of primary lymphocyte populations. Each plate contained virus control wells (cells plus virus) and experimental wells (drug plus cells plus virus) of either 00KE_KER2008 (Subtype A), IIIB (Subtype B), or 98US_MSC5016 (Subtype C). Test drug dilutions were prepared at a 2×concentration and 100 μL of each concentration was placed in appropriate wells. Fifty μL of a predetermined dilution of virus stock was placed in each test well (final MOI≅0.1). After this period, cell-free supernatant samples were collected for analysis of reverse transcriptase (RT) activity with an RT assay. […] In the Table below SI50=CC50/EC50 and SI90=CC90/EC90.

In another data set the test system is 98US_MSC5016 (Subtype C). In words: PBMC Acute Infection, 98US_MSC5016. The settings on record: Human immunodeficiency virus 1, PBMC, isolate 98US_MSC5016, subtype C, RT activity readout; for EC50: read-out: EC50; for EC90: read-out: EC90. The class given is cell-based, HIV. How it is done: as §2
A short description of data set [3]: PBMC Acute Infection, cytotoxicity (CC50/CC90). The data set is classed as cell-based. The conditions noted are these: human. How it is done: as §2
Setting [4] is: Human immunodeficiency virus 1, HEK-293T, 24 h, read-out: EC50, A3G Degradation Assay.
Setting [5] is: Human immunodeficiency virus 1, read-out: A3G degradation at.
Setting [6] is: PHA-stimulated PBMCs pooled from at least two normal donors, row of isolate 00KE-KER2008, subtype A.
[7] abbreviates: row of isolate 00KE-KER2008, subtype A.

Read-outs that look alike come from different tables or passages of the source.

On to `CCc1c2c(nc3ccc(N)cc13)-c1cc3c(c(=O)n1C2)CNC(=O)[C@]3(O)CC` [Compound O5-SN, (S)-9-Amino-4,11-diethyl-4-hydroxy-1,2-dihydroquinolino[2′,3′:3,4]pyrrolo[1,2-b][2,7]naphthyridine-3,14(4H,12H)-dione], for which, in data set [1], the “Vif-dependent A3G degradation (result in words)” value was “block”. Further, the EC50 in data set [1] (setting [4]) turned out to be 99 nM; in data set [1] (setting [5]) it was 84 nM; with IIIB (Subtype B), 8 nM; in the data set with 98US_MSC5016 (Subtype C), 6 nM. The IC50 (at HIV-1 Integrase; in data set [2]) was over 100000 nM each time. Moreover, the “activity against HIV integrase (result in words)” value on HIV-1 Integrase was “inactive”. Moreover, the “activity against HIV reverse transcriptase (result in words)” value in data set [2] is “inactive”. Also, the EC90 is 25 nM in the data set with IIIB (Subtype B) and 20 nM in the data set on 98US_MSC5016 (Subtype C). The half-maximal cytotoxic concentration (CC50) in data set [3] (setting [6]) came to 2530 nM; in data set [3] (PHA-stimulated PBMCs pooled from at least two normal donors, row of isolate 98US_MSC5016, subtype C) it was 2530 nM; in data set [3] (PHA-stimulated PBMCs pooled from at least two normal donors, row of isolate IIIB, subtype B), 6290 nM. The molecule also came in with a CC90 in data set [3] (setting [6]) of over 100000 nM.

For the molecule `CCc1c2c(nc3ccc(O)cc13)-c1cc3c(c(=O)n1C2)CNC(=O)[C@]3(O)CC` [SN38-L, (S)-4,11-Diethyl-4,9-dihydroxy-1,2-dihydroquinolino[2′,3′:3,4]pyrrolo[1,2-b][2,7]naphthyridine-3,14(4H,12H)-dione], the “Vif-dependent A3G degradation (result in words)” value in data set [1] is “block”. For the same molecule, the EC50 is 84 nM in data set [1] (setting [4]), 99 nM in data set [1] (setting [5]), 10 nM with IIIB (Subtype B) and 4 nM with 98US_MSC5016 (Subtype C). For the same molecule, the 50% inhibitory concentration (IC50) (against HIV-1 Integrase; in data set [2]) was over 100000 nM each time. In addition, the “activity against HIV integrase (result in words)” value at HIV-1 Integrase is “inactive”. Further, the “activity against HIV reverse transcriptase (result in words)” value in data set [2] was “inactive”. Moreover, the EC90 with IIIB (Subtype B) was 28 nM; in the data set with 98US_MSC5016 (Subtype C) it was 16 nM. In addition, the half-maximal cytotoxic concentration (CC50) in data set [3] (setting [7]) stood at 1180 nM; in data set [3] (row of isolate 98US_MSC5016, subtype C), 1180 nM; in data set [3] (row of isolate IIIB, subtype B), 5790 nM. Moreover, the CC90 in data set [3] (setting [7]) came to 27900 nM.

As a reminder, the IC50 is the concentration that inhibits the measured activity by half. The EC90 is the concentration needed for an effect of 90%. Usually CC50 stands for the concentration giving 50% cytotoxicity.
